According to patent US20050233985A1, “Rsk inhibitors and therapeutic uses thereof” (priority 2003, published 2005):
pIC50: −log10 of the molar value. Where two headings read alike, the source gives them in different places.

Assays:
Rsk2 = target: T1, Rsk2 (Homo sapiens, UniProt P51812, Y707A); experiment: Rsk kinase ELISA with immobilized substrate and phosphospecific antibodies; format: biochemical; settings: in vitro, increasing concentrations of compound; read-out: IC50 for Rsk catalytic activity
T1 construct: His; made in house; host or cells: Sf9 (baculovirus, Bac-to-Bac)
T1 sequence (P51812 whole entry Y707A): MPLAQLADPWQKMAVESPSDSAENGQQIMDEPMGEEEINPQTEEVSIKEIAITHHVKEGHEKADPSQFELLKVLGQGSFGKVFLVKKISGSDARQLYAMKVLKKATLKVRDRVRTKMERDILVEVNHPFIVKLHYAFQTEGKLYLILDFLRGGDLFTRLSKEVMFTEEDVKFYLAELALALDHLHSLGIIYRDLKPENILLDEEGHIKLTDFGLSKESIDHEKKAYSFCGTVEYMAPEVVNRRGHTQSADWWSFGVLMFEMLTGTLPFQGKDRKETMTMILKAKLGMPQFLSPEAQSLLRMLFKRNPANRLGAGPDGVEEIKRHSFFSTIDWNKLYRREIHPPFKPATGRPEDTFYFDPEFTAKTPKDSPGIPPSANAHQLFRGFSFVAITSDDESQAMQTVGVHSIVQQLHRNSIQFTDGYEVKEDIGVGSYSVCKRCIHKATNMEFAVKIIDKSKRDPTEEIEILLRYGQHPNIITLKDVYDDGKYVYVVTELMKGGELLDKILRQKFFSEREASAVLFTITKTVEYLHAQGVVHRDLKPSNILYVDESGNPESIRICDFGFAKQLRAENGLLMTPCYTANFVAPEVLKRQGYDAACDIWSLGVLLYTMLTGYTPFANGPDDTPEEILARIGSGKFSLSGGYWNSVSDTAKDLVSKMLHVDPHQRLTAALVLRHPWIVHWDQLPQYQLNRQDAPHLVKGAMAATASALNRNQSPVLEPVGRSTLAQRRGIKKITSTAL

[1] = target: T2, Focal Adhesion Kinase (FAK) (Homo sapiens, UniProt Q05397); experiment: FAK tyrosine kinase ELISA; format: biochemical; settings: purified compounds
T2 construct: the catalytic domain of the tyrosine kinase, Focal Adhesion Kinase (FAK); His; made in house; host or cells: Sf9 (baculovirus, Bac-to-Bac)
T2 sequence (Q05397 422-680 limits assumed, species assumed): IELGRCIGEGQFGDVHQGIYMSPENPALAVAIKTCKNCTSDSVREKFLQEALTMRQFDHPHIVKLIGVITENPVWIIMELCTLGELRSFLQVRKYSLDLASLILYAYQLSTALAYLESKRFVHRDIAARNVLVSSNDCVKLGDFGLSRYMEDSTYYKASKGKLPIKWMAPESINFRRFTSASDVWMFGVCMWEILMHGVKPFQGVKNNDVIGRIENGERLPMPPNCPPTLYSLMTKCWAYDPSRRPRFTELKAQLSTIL

protein kinase A (PKA) = target: T3, protein kinase A (PKA) (Homo sapiens, UniProt P17612); experiment: PKA kinase ELISA; format: biochemical; settings: purified compounds
T3 construct: made in house; host or cells: bacteria
Protocol: (§1) Kinase Assays. Glutathione-S-transferase (GST)-fusion protein (1 g) containing the sequence -[…] (SEQ ID NO: 3, for serine/threonine kinase assays) or -[…] (SEQ ID NO: 4, for tyrosine kinase assays) was adsorbed in the wells of LumiNunc 96-well polystyrene plates (MaxiSorp surface treatment). The wells were blocked with sterile 3% tryptone in phosphate buffered saline and stored at 4° C. for up to 6 months. Kinase (5 nM) in 70 μl of kinase buffer (5 mM -glycerophosphate pH 7.4, 25 mM HEPES pH 7.4, 1.5 mM DTT, 30 mM MgCl2, 0.15 M NaCl) was dispensed into each well. Compound at indicated concentrations or vehicle was added, and reactions were initiated by the addition of 30 μl of ATP for a final ATP concentration of 10 μM unless indicated otherwise. Reactions were terminated after 10 to 45 min by addition of 75 μl of 500 mM EDTA, pH 7.5. All assays measured the initial velocity of reaction. After extensive washing of wells, polyclonal phosphospecific antibody developed against the phosphopeptide and HRP-conjugated anti-rabbit antibody (211-035-109, Jackson ImmunoResearch Laboratories) were used to detect serine phosphorylation of the substrate. HRP-conjugated anti-phospho-tyrosine antibody (RC20, BD Transduction Laboratories) was used for phospho-tyrosine detection. His-tagged active Rsk and FAK were expressed in Sf9 cells and purified using NiNTA resin (Qiagen). Baculovirus was prepared using the Bac-to-Bac® baculovirus expression system (Invitrogen). PKA was bacterially expressed and activated as described (Anal. Biochem. 245, 115-122 (1997)). Active Msk1 and p70 S6 kinase was purchased from Upstate Biotechnology. Immunoprecipitation and kinase assays were performed as previously described (Poteet-Smith et al., J. Biol. Chem, 274, 22135-22138 (1999) using the immobilized GST-fusion proteins and ELISAs as above.

p70 S6K = target: T4, p70 S6K (Homo sapiens, UniProt P23443); experiment: p70 S6K kinase ELISA; format: biochemical; settings: purified compounds
T4 construct: purchased Upstate Biotechnology
T4 sequence (P23443 24-525): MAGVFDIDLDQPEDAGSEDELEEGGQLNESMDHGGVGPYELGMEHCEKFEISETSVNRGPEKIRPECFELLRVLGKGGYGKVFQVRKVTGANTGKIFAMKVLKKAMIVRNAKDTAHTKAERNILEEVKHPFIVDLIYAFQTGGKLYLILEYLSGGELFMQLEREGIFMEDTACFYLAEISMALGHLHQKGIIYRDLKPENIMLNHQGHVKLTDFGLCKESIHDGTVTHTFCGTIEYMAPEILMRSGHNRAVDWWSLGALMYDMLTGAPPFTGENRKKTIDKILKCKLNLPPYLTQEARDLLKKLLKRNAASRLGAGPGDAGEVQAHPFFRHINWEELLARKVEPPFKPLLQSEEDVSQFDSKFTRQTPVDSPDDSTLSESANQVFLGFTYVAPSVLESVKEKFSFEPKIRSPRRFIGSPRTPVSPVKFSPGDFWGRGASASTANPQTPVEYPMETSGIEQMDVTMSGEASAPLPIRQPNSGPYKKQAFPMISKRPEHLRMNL
Protocol: as §1

Msk1 = target: T5, Msk1 (Homo sapiens, UniProt O75582); experiment: Msk1 kinase ELISA; format: biochemical; settings: purified compounds
T5 construct: purchased Upstate Biotechnology
T5 sequence (O75582 whole entry, species assumed): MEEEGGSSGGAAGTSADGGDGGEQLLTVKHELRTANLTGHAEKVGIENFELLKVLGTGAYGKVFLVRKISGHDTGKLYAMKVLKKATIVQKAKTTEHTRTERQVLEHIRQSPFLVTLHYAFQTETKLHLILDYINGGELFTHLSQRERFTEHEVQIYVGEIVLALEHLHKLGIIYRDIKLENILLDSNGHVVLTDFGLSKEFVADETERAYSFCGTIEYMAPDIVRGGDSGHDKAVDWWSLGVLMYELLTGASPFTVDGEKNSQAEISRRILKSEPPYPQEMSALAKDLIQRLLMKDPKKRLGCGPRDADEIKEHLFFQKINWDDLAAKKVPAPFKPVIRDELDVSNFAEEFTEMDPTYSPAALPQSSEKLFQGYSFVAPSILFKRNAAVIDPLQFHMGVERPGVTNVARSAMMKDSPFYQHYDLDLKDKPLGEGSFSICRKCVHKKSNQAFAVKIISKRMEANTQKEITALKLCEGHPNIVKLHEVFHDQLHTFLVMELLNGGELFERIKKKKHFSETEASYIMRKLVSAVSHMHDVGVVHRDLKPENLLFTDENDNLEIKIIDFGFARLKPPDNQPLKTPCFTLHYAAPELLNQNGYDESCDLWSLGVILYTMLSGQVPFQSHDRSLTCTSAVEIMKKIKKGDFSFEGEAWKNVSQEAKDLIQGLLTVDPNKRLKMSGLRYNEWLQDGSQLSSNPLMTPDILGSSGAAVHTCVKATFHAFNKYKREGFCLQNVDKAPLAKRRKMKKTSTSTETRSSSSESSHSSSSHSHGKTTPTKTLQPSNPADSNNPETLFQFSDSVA
Protocol: as §1

[2] = system: Ha-ras-transformed NIH/3T3 cells; experiment: Proliferation of transformed cells (CellTiter-Glo); format: cell-based; settings: 50 μM PD 98059; Ha-ras-transformed or parental NIH/3T3 cells
Protocol: Cells were treated with vehicle, 50 μM SL0101, or 50 μM PD 98059 (PD 98059 is a MEK-specific inhibitor). Proliferation was measured using Promega CellTiter-Glo™ Luminescent cell viability assay.
(§2) Cell Culture. For proliferation studies cells were seeded at 2500 to 5000 cells per well in 96 well tissue culture plates in the appropriate medium as described by American Type Culture Collection. After 24 hr, the medium was replaced with medium containing compound or vehicle as indicated. Cell viability was measured at indicated time points using CellTiter-Glo™ assay reagent (Promega) according to manufacturer's protocol. For in vivo inhibition studies, cells were seeded at 2.5×10^5 cells/well in 12 well cell culture clusters. After 24 hr, the cells were serum starved for 24 hr then incubated with compound or vehicle for 3 hr prior to a 30 min PDB stimulation. Cells were lysed as previously described (J. Biol. Chem. 273, 13317-13323 (1998)). The lysates were normalized for total protein, electrophoresed and immunoblotted. For cell imaging, Ha-Ras-transformed NIH/3T3 cells were seeded on LABTEK II chamber slides (Nalge) at a density of 1×10^4 cells/well. After 24 hr, fresh medium was added the indicated compounds or vehicle. Images were taken 48 hr after treatment at a magnification of 20×.

MCF-7 cells = format: cell-based
Protocol: (§3) Cell viability was measured at indicated time points. Proliferation assays were conducted using CellTiter-Glo Luminescent Cell Viability Assay (Promega), performed 44 hrs after treatment for FIGS. 8A &B and at indicated points for FIG. 8C. The data are expressed relative to time 0.
as §2

MCF-10A cells = experiment: Proliferation of MCF-10A cells (CellTiter-Glo); format: cell-based
Protocol: as §3, §2

[3] = system: p140 phosphorylation in MCF-7 cells; experiment: PDB-induced p140 phosphorylation in MCF-7 cells (immunoblot); format: cell-based, human; settings: 50 μM, 3 hr pre-incubation, 500 nM PDB 30 min
Protocol: Cells were treated with 500 nM PDB for 30 min prior to lysis. Protein concentration of lysates was measured and lysates were electrophoresed, transferred and immunoblotted.
as §2

What does the source list for `CC(=O)OC1C(C)OC(Oc2c(-c3ccc(O)cc3)oc3cc(O)cc(O)c3c2=O)C(O)C1O` [SL0101-3, kaempferol-3-α-L-(4″-acetyl) rhamnopyranoside]?
pIC50 (Rsk2): 6.72; inhibition of FAK [1]: do not inhibit; inhibition of Protein Kinase A (protein kinase A (PKA)): do not inhibit; inhibition of p70 S6 kinase (p70 S6K): do not inhibit; inhibition of MSK (Msk1): do not inhibit

With `COc1cccc(-c2cc(=O)c3ccccc3o2)c1N` [PD 98059, reference compound] as the molecule, how does the “influence on the proliferation rate” value [2] read?
The value was “observed only when cells were incubated in the presence of low concentrations of fetal calf serum”.

With `N#CC(=C(/N)Sc1ccccc1N)/C(C#N)=C(\N)Sc1ccccc1N` [U0126, reference compound] as the molecule, how does the “proliferation of MCF-7 cells” value (MCF-7 cells; 50 μM, 44 hrs after treatment) read?
The value was “halted proliferation”.

And the “growth of MCF-10A cells” value (MCF-10A cells; 50 μM, 44 hrs after treatment)?
The value was “halted proliferation”.

And the “PDB-induced p140 phosphorylation” value [3]?
The value was “abrogates”.

Which “proliferation of MCF-7 cells” value (MCF-7 cells; 500 nM) does the source give for `Cn1cc(C2=C(c3cn(CCCSC(=N)N)c4ccccc34)C(=O)NC2=O)c2ccccc21` [Ro 318220, reference compound] here?
Its value is “attenuated proliferation”.

What about the “proliferation of MCF-10A cells” value (MCF-10A cells; 500 nM) of the same molecule?
Its value is “attenuated proliferation”.
